Test results published in ChEMBL document CHEMBL1138550, “Adamantane derivatives of thiazolyl-N-substituted amide, as possible non-steroidal anti-inflammatory agents” (2009).

Key:
Rattus norvegicus = assay: Antiinflammatory activity in AKR rat assessed as inhibition of carrageenan-induced right hind paw oedema at 0.2 mmol/kg, ip coadministered with carrageenan relative to control; format: functional
[1] = target: T1, Seed linoleate 13S-lipoxygenase-1 (Glycine max) (UniProt P08170); assay: Inhibition of soybean LOX1 at 100 uM
T1 sequence (whole entry): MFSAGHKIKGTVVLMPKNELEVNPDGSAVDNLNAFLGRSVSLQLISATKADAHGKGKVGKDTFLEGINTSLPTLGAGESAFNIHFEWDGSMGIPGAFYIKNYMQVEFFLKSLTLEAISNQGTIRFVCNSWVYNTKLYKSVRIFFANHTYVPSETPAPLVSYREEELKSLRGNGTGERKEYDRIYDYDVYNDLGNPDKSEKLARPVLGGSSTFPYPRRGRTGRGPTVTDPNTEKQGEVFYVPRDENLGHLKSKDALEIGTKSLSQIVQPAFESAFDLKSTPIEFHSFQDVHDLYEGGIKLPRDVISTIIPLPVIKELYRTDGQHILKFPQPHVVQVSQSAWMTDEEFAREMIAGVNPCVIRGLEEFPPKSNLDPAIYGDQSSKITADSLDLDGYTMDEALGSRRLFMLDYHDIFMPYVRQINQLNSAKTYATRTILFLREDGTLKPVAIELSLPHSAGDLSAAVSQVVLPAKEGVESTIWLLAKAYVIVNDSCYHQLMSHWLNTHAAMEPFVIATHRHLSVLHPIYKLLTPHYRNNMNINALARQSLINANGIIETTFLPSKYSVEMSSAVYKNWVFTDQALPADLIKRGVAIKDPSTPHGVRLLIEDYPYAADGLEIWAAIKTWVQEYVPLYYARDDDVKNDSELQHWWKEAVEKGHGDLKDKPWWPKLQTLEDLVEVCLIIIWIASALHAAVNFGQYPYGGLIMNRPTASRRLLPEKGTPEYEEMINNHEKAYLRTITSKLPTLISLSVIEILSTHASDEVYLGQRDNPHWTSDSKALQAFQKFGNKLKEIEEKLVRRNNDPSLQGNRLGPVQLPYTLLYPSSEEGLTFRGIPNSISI

[2] = target: T2, Prostaglandin G/H synthase 1 (Ovis aries) (UniProt P05979); assay: Inhibition of ovine COX1 at 200 uM by enzyme immuno assay
T2 sequence (whole entry): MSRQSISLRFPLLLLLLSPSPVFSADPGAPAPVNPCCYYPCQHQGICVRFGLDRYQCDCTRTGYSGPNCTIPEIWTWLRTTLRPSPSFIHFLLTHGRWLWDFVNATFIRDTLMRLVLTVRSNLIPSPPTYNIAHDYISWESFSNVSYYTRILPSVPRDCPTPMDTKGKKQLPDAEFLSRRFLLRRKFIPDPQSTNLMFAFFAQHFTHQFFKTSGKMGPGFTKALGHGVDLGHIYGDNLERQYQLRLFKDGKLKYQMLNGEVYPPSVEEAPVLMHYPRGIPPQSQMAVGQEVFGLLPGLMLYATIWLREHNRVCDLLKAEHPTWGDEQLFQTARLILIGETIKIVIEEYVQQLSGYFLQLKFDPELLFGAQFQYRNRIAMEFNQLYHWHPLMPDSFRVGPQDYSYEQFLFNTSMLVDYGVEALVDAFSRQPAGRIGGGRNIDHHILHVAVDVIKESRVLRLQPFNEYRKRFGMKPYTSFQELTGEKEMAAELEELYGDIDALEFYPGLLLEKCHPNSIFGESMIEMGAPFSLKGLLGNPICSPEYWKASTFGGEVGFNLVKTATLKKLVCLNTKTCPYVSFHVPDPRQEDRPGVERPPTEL

[3] = target: T3, Prostaglandin G/H synthase 2 (Homo sapiens) (UniProt P35354); assay: Inhibition of human recombinant COX2 at 200 uM by enzyme immuno assay
T3 sequence (whole entry): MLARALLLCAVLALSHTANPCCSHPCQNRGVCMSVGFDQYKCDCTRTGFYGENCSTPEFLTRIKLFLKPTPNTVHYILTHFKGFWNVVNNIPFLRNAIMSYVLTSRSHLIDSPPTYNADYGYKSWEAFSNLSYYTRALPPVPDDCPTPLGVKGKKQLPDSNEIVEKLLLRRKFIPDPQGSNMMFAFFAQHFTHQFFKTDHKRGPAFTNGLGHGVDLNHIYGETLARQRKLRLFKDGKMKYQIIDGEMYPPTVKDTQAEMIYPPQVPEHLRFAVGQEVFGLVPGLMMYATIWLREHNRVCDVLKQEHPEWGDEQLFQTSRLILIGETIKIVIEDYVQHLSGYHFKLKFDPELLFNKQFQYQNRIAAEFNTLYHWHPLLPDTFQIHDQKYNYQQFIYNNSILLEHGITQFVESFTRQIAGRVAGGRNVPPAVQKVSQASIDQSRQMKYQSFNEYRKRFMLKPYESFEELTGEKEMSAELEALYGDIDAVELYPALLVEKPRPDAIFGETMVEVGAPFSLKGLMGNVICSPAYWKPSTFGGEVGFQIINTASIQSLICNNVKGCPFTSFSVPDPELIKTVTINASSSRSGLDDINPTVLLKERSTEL

[4] = target: T3, Prostaglandin G/H synthase 2 (Homo sapiens); assay: Inhibition of human recombinant COX2 at 20 uM by enzyme immuno assay
[5] = target: T2, Prostaglandin G/H synthase 1 (Ovis aries); assay: Inhibition of ovine COX1 at 20 uM by enzyme immuno assay

inhibition [1]	Compound	inhibition in vivo at 200 µmol/kg (Rattus norvegicus)	other results
	COc1ccc(-c2csc(NC(=O)CN(C)C)n2)cc1	35%	
0%	O=C(CN1CCCCC1)Nc1nc(C23CC4CC(CC(C4)C2)C3)cs1	26.6%	
	CN1CCN(CC(=O)Nc2nc(C34CC5CC(CC(C5)C3)C4)cs2)CC1	30%	
26.4%	CN(C)CC(=O)Nc1nc(C23CC4CC(CC(C4)C2)C3)cs1	48%	inhibition [2]: 25%; inhibition [3]: 3.6%
39%	O=C(CCN1CCN(c2ccccc2)CC1)Nc1nc(C23CC4CC(CC(C4)C2)C3)cs1	55.9%	inhibition [4]: 17.3%; inhibition [5]: 28.6%
5%	O=C(CN1CCCC1)Nc1nc(C23CC4CC(CC(C4)C2)C3)cs1	69.7%	inhibition [2]: 33.6%; inhibition [3]: 12.2%
	COc1ccc(-c2csc(NC(=O)CCN3CCCC3)n2)cc1	56.2%	
	COc1ccc(-c2csc(NC(=O)CN3CCCC3)n2)cc1	55%	
	CN(C)CC(=O)Nc1nc(-c2ccccc2)cs1	52%	
8.4%	O=C(CCN1CCOCC1)Nc1nc(C23CC4CC(CC(C4)C2)C3)cs1	49.2%	
	COc1ccc(-c2csc(NC(=O)CN3CCCCC3)n2)cc1	53.3%	
	O=C(CCN1CCCC1)Nc1nc(C23CC4CC(CC(C4)C2)C3)cs1	36.8%	
	O=C(CN1CCN(c2ccccc2)CC1)Nc1nccs1	72.1%	
	O=C(CCN1CCCC1)Nc1nccs1	64.1%	
	CN(C)CC(=O)Nc1nccs1	28.4%	
1%	CN(C)CCC(=O)Nc1nc(C23CC4CC(CC(C4)C2)C3)cs1	81.5%	inhibition [2]: 25%; inhibition [3]: 8.6%
	O=C(CN1CCCC1)Nc1nc(-c2ccccc2)cs1	49.2%	
	COc1ccc(-c2csc(NC(=O)CCN3CCOCC3)n2)cc1	55.4%	
	Cc1csc(NC(=O)CN(C)C)n1	37.6%	
0%	O=C(CN1CCOCC1)Nc1nc(C23CC4CC(CC(C4)C2)C3)cs1	57.8%	inhibition [2]: 27.9%; inhibition [3]: 35.3%
	O=C(CCN1CCCC1)Nc1nc(-c2ccccc2)cs1	68.4%	
33%	O=C(CN1CCN(c2ccccc2)CC1)Nc1nc(C23CC4CC(CC(C4)C2)C3)cs1	47.6%	inhibition [2]: 43.6%; inhibition [3]: 15.8%
